# System: ATF4 luciferase reporter in HEK293T cells
# Assay: ATF4-Luc assay (ATF4 luciferase reporter, tunicamycin-treated HEK293T cells)
# Assay type: cell-based, human
# Details: Homo sapiens, HEK-293T; HEK293T cells carrying the ATF4 luciferase reporter, 1 μg/mL tunicamycin, 7 hours
row,SMILES,EC50 [nM]
1,"O=C(COc1ccc(Cl)c(F)c1)NC12CC(NCC(O)c3ccc(Cl)c(F)c3)(C1)C2 (stereo not drawn) [Compound 292, 2-(4-chloro-3-fluorophenoxy)-N-(3-{[2-(4-chloro-3-fluorophenyl)-2-hydroxyethyl]amino}bicyclo[1.1.1]pentan-1-yl)acetamide]",500 to 2000
2,"O=C(COc1ccc(Cl)c(F)c1)NC12CC(NC(=O)CC(=O)c3ccc(Cl)cc3)(C1)C2 [Compound 293, N-{3-[2-(4-chloro-3-fluorophenoxy)acetamido]bicyclo[1.1.1]pentan-1-yl}-3-(4-chlorophenyl)-3-oxopropanamide]",250 to 500
3,"O=C(/C=C/c1ccc(Cl)cc1)NC12CC(NC(=O)COc3ccc(Cl)c(F)c3)(C1)C2 [Compound 294, (2E)-N-{3-[2-(4-chloro-3-fluorophenoxy)acetamido]bicyclo[1.1.1]pentan-1-yl}-3-(4-chlorophenyl)prop-2-enamide]",10 to 50
4,"Cc1ccc(OCC(=O)NC23CC(NC(=O)COc4ccc(Cl)c(Cl)c4)(C2)C3)cn1 [Compound 295, 2-(3,4-dichlorophenoxy)-N-(3-{2-[(6-methylpyridin-3-yl)oxy]acetamido}bicyclo[1.1.1]pentan-1-yl)acetamide]",50 to 250
5,"O=C(COc1cc(C(F)(F)F)nc(C(F)(F)F)c1)NC12CC(NC(=O)COc3ccc(Cl)c(F)c3)(C1)C2 [Compound 296, 2-{[2,6-bis(trifluoromethyl)pyridin-4-yl]oxy}-N-{3-[2-(4-chloro-3-fluorophenoxy)acetamido]bicyclo[1.1.1]pentan-1-yl}acetamide]",> 2000
6,"COC1CC2(NC(=O)COc3ccc(Cl)c(F)c3)CCC1(NC(=O)COc1ccc(Cl)c(F)c1)CC2 (stereo not drawn) [Compound 299, N,N′-(2-methoxybicyclo[2.2.2]octane-1,4-diyl)bis[2-(4-chloro-3-fluorophenoxy)acetamide]]",10 to 50
7,"CN(C)C1CC2(NC(=O)COc3ccc(Cl)c(F)c3)CCC1(NC(=O)COc1ccc(Cl)c(F)c1)CC2 (stereo not drawn) [Compound 300, N,N′-[2-(dimethylamino)bicyclo[2.2.2]octane-1,4-diyl]bis[2-(4-chloro-3-fluorophenoxy)acetamide]]",10 to 50
8,"O=C(CNC(=O)OCc1ccccc1)NC12CC(NC(=O)COc3ccc(Cl)c(F)c3)(C1)C2 [Compound 304, benzyl [2-({3-[2-(4-chloro-3-fluorophenoxy)acetamido]bicyclo[1.1.1]pentan-1-yl}amino)-2-oxoethyl]carbamate]",500 to 2000
9,"O=C(COc1ccc(Cl)c(F)c1)NC12CCC(NC(=O)COc3ccc4c(c3)OC(F)(F)O4)(CC1)C(O)C2 (stereo not drawn) [Compound 305, 2-(4-chloro-3-fluorophenoxy)-N-(4-{2-[(2,2-difluoro-2H-1,3-benzodioxol-5-yl)oxy]acetamido}-3-hydroxybicyclo[2.2.2]octan-1-yl)acetamide]",< 10
10,"O=C(COc1ccc(Cl)c(F)c1)NC12CCC(NC(=O)COc3cncc(C(F)(F)F)c3)(CC1)C(O)C2 (stereo not drawn) [Compound 306, 2-(4-chloro-3-fluorophenoxy)-N-[3-hydroxy-4-(2-{[5-(trifluoromethyl)pyridin-3-yl]oxy}acetamido)bicyclo[2.2.2]octan-1-yl]acetamide]",< 10
11,"O=C(COc1ccc(Cl)c(F)c1)NC12CC(NC(=O)[C@@H](O)c3ccc(Cl)cc3)(C1)C2 [Compound 307, (2S)—N-{3-[2-(4-chloro-3-fluorophenoxy)acetamido]bicyclo[1.1.1]pentan-1-yl}-2-(4-chlorophenyl)-2-hydroxyacetamide]",> 2000
12,"O=C(COc1ccc(Cl)c(F)c1)NC12CCC(NC(=O)COc3ccnc(C(F)(F)F)c3)(CC1)C(O)C2 (stereo not drawn) [Compound 308, 2-(4-chloro-3-fluorophenoxy)-N-[3-hydroxy-4-(2-{[2-(trifluoromethyl)pyridin-4-yl]oxy}acetamido)bicyclo[2.2.2]octan-1-yl]acetamide]",< 10

# From patent US20240166652A1, “MODULATORS OF THE INTEGRATED STRESS PATHWAY” (Calico Life Sciences LLC, priority 2017, published 2024)
